Assay [1] deals with T1, PDE4B1 (Homo sapiens, UniProt Q07343).
T1 construct: made in house; host or cells: SF21 insect cells (baculovirus; virus prepared in SF9 cells)
The assay is described as follows: Inhibition of PDE4B1 activity (SPA, [3H]cAMP). In kind it is biochemical. The conditions noted are these: recombinant PDE4B1, 0.5 μM cAMP; binned: below 8 / between 8 and 9; read-out: PDE4B1 inhibitory values measured as −logIC50 (converted). As to the method: The PDE4B1 (GB no. L20966) was a gift of Prof. M. Conti (Stanford University, USA). It was amplified from the original plasmid (pCMV5) via PCR with primers Rb18 (5′-[…]-3′) and Rb10 (5′-[…]-3′) and cloned into the pCR-Bac vector (Invitrogen, Groningen, NL).
The recombinant baculovirus was prepared by means of homologous recombination in SF9 insect cells. The expression plasmids were cotransfected with Baculo-Gold DNA (Pharmingen, Hamburg) using a standard protocol (Pharmingen, Hamburg). Wt virus-free recombinant virus supernatants were selected using plaque assay methods. After that, high-titre virus supernatants were prepared by amplifying 3 times. PDE4B1 was expressed in SF21 cells by infecting 2×10^6 cells/ml with an MOI (multiplicity of infection) between 1 and 10 in the serum-free SF900 medium (GIBCO Life Technologies, Karlsruhe, Germany). The cells were cultured at 28° C. for 48-72 hours, after which they were pelleted for 5-10 min at 1000×g and 4° C.
The SF21 insect cells were resuspended, at a concentration of approx. 10^7 cells/ml, in ice-cold (4° C.) homogenization buffer (20 mM Tris, pH 8.2, containing the following additions: 140 mM NaCl, 3.8 mM KCl, 1 mM EGTA, 1 mM MgCl2, 10 mM β-mercaptoethanol, 2 mM benzamidine, 0.4 mM Pefablock, 10 μM leupeptin, 10 μM pepstatin A, 5 μM trypsin inhibitor) and disrupted by ultrasonication. The homogenate was then centrifuged for 10 min at 1000×g and the supernatant was stored at −80° C. until subsequent use (see below). The protein content was determined by the Bradford method (BioRad, Munich) using BSA (Bovine serum albumin) as the standard.
PDE4B1 activities were measured in a 96-well platform using SPA (scintillation proximity assay) yttrium silicate beads (RPNQ1050 from GE Healthcare). In a first step the PDE activity operated hydrolysis of either [^3H] cAMP (substrate) into [^3H] 5′AMP. In a second step substrate and product were distinguished following addition of SPA yttrium silicate beads. Indeed, in the presence of zinc sulphate the linear [^3H] […] Close proximity of bound [^3H] […] The test volume was 100 μl and finally contained 20 mM Tris buffer (pH 7.4), 0.1 mg/ml of BSA, 5 mM Mg^2+, 0.5 μM cAMP (including about 50,000 cpm of [3H]cAMP) as substrate, 1 μl of the respective substance dilution in DMSO and sufficient recombinant PDE (1000×g supernatant, see above) to ensure that 10-20% of the cAMP was converted under the said experimental conditions. […] After a preincubation of 5 min at 37° C., the reaction was commenced by adding the substrate (cAMP) and the assays were incubated for a further 15 min. Reactions were terminated by adding SPA beads (50 μl). In agreement with the manufacturer's instructions, the SPA beads had previously been resuspended in water, but were then diluted 1:3 (v/v) in water. This diluted solution further contained 3 mM IBMX (isobutylmethylxanthine) to ensure a complete block of PDE activity. Once the beads were sedimented (>30 min), the MTP's (microtiter plate) were analyzed in commercially available luminescence detection devices. The corresponding IC50 values of the compounds for inhibition of PDE4B1 activity were determined from the concentration-effect curves by means of non-linear regression.
For the following compounds PDE4B1 inhibitory values [measured as −logIC50 (mol/l)] below 8 and between 8 and 9 have been determined. The numbers of the compounds correspond to the numbers of the examples.

In assay [2] the target is T2, human PDE5 (Homo sapiens, UniProt O76074).
T2 construct: from tissue; host or cells: human platelets from fresh donor blood (platelet lysate)
Kind of assay: Inhibition of PDE5 activity (SPA, [3H]cGMP, platelet lysate). Format: biochemical. Particulars: 0.5 μM cGMP, binned: below 8 / between 8 and 9, read-out: PDE5 inhibitory values measured as −logIC50 (converted). As to the method: As a source for human PDE5, platelets were used. For that purpose, 150 ml fresh blood from human donors anticoagulated with citrate [final concentration 0.3% (w/v)] was centrifuged at 200 g for 10 min to obtain the so-called platelet-rich-plasma (PRP) as a supernatant. 1/10 volume of ACD solution (85 mM Na3-citrate, 111 mM D-glucose, 71 mM citric acid, pH 4.4) was added to 9/10 volume of PRP. After centrifugation (1,400 g, 10 min) the cell pellet was resuspended in 3 ml homogenization buffer (NaCl 140 mM, KCl 3.8 mM, EGTA (ethylene glycol tetraacetic acid) 1 mM, MgCl2 1 mM, Tris-HCl 20 mM, beta-mercaptoethanol 1 mM, pH 8.2) plus protease-inhibitor mix resulting in final concentrations of 0.5 mM Pefablock (Roche), 10 μM Leupeptin, 5 μM Trypsine inhibitor, 2 mM Benzamidin and 10 μM Pepstatin A. The suspension was sonicated and thereafter centrifuged for 15 min at 10,000 g. The resulting supernatant (platelet lysate) was used for enzymatic assays.
PDE5 activities were measured in a 96-well platform using SPA (scintillation proximity assay) yttrium silicate beads (RPNQ1050 from GE Healthcare). In a first step the PDE activity operated hydrolysis of either [^3H] cGMP (substrate) into [^3H] 5′GMP. In a second step substrate and product were distinguished following addition of SPA yttrium silicate beads. Indeed, in the presence of zinc sulphate the linear [^3H] […] Close proximity of bound [^3H] […] The test volume was 100 μl and contained 20 mM Tris buffer (pH 7.4), 0.1 mg of BSA (bovine serum albumin)/ml, 5 mM Mg^2+, 1 μM motapizone (PDE3 Inhibitor), 10 nM PDE2 inhibitor 2-(3,4-dimethoxybenzyl)-7-[(1R,2R)-2-hydroxy-1-(2-phenylethyl)propyl]-5-methylimidazo[5,1-f][1,2,4]triazin-4(3H)-one, 0.5 μM cGMP (cyclic guanosine monophosphate) (including about 50,000 cpm of [3H]cGMP as a tracer) (substrate), 1 μl of the respective compound dilution in dimethylsulfoxide (DMSO) and sufficient PDE5-containing platelet lysat (10,000×g supernatant, see above) to ensure that 10-20% of the cGMP was converted under the said experimental conditions. […] After a preincubation of 5 min at 37° C., the reaction was commenced by adding the substrate (cGMP) and the assay was incubated for a further 15 min. The reaction was terminated by adding SPA beads (50 μl). In agreement with the manufacturer's instructions, the SPA beads had previously been resuspended in water, but were then diluted 1:3 (v/v) in water. This diluted solution also contained 3 mM 8-methoxymethyl-3-isobutyl-1-methylxanthine (IBMX) to ensure a complete block of PDE activity. Once the beads were sedimented (>30 min), the MTP's were analyzed in commercially available luminescence detection devices. The corresponding IC50 values of the compounds for inhibition of PDE activity were determined from the concentration-effect curves by means of non-linear regression.
For the following compounds PDE5 inhibitory values [measured as −logIC50 (mol/l)] below 8 and between 8 and 9 have been determined. The numbers of the compounds correspond to the numbers of the examples.

Each structure is given as a SMILES string.

Here are results for eight compounds from patent publication US20140113877A1, “NOVEL 3,4,4A,10B-TETRAHYDRO-1H-THIOPYRANO[4,3-C] ISOQUINOLINE COMPOUNDS” (Takeda GmbH, priority 2011, published 2014).

T1 sequence (Q07343 whole entry): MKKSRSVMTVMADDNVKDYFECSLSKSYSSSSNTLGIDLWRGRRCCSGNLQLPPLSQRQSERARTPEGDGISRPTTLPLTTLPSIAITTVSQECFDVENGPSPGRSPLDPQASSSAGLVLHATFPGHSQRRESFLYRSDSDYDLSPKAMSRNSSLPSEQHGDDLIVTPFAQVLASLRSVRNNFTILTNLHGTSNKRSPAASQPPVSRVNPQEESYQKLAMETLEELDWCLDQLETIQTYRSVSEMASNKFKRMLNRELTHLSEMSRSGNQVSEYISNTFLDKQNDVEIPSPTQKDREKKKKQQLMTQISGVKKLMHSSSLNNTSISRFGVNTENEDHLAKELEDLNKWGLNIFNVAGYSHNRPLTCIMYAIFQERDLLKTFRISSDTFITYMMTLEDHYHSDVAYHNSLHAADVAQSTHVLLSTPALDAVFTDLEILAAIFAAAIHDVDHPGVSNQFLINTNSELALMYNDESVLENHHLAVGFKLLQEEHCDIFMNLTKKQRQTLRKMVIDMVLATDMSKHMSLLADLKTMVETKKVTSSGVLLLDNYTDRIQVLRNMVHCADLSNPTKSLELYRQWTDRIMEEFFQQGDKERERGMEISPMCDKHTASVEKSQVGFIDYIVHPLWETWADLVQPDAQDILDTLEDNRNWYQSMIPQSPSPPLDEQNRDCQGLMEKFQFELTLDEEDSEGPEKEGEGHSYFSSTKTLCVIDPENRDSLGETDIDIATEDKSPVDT

On to `CCOc1cc2c(cc1OC)C(c1ccc(C(=O)N3CCC(n4c(=O)c5sc(-c6cc(F)ccc6OC)cc5n(Cc5ccc(OC)c(F)c5)c4=O)CC3)cc1)=N[C@@H]1CCSC[C@H]21` [Example 10, 3-[1-({4-[(4aR,10bR)-9-ethoxy-8-methoxy-3,4,4a,10b-tetrahydro-1H-thiopyrano[4,3-c]isoquinolin-6-yl]phenyl}carbonyl)piperidin-4-yl]-1-(3-fluoro-4-methoxybenzyl)-6-(5-fluoro-2-methoxyphenyl)thieno[3,2-d]pyrimidine-2,4(1H,3H)-dione], for which the IC50 in assay [1] and in assay [2] was 1 to 10 nM in each case.

For `CCOc1cc2c(cc1OC)C(c1ccc(C(=O)N3CCC(n4c(=O)c5sc(-c6cc(OC)ccc6OC)cc5n(Cc5ccc(OC)c(F)c5)c4=O)CC3)cc1)=N[C@@H]1CCSC[C@H]21` [Example 11, 6-(2,5-dimethoxyphenyl)-3-[1-({4-[(4aR,10bR)-9-ethoxy-8-methoxy-3,4,4a,10b-tetrahydro-1H-thiopyrano[4,3-c]isoquinolin-6-yl]phenyl}carbonyl)piperidin-4-yl]-1-(3-fluoro-4-methoxybenzyl)thieno[3,2-d]pyrimidine-2,4(1H,3H)-dione], the IC50 in assay [1] and in assay [2] was 1 to 10 nM each time.

In the case of `CCOc1cc2c(cc1OC)C(c1ccc(C(=O)N3CCC(n4c(=O)c5sc(-c6ccccc6F)cc5n(Cc5ccc(OC)c(F)c5)c4=O)CC3)cc1)=N[C@@H]1CCSC[C@H]21` [Example 12, 3-[1-({4-[(4aR,10bR)-9-ethoxy-8-methoxy-3,4,4a,10b-tetrahydro-1H-thiopyrano[4,3-c]isoquinolin-6-yl]phenyl}carbonyl)piperidin-4-yl]-1-(3-fluoro-4-methoxybenzyl)-6-(2-fluorophenyl)thieno[3,2-d]pyrimidine-2,4(1H,3H)-dione], the IC50 in assay [1] and in assay [2] was 1 to 10 nM in each case.

As for `CCOc1cc2c(cc1OC)C(c1ccc(C(=O)N3CCC(n4c(=O)c5sc(-c6ccc(F)cc6)cc5n(Cc5ccc(OC)c(F)c5)c4=O)CC3)cc1)=N[C@@H]1CCSC[C@H]21` [Example 13, 3-[1-({4-[(4aR,10bR)-9-ethoxy-8-methoxy-3,4,4a,10b-tetrahydro-1H-thiopyrano[4,3-c]isoquinolin-6-yl]phenyl}carbonyl)piperidin-4-yl]-1-(3-fluoro-4-methoxybenzyl)-6-(4-fluorophenyl)thieno[3,2-d]pyrimidine-2,4(1H,3H)-dione], the IC50 in assay [1] and in assay [2] was 1 to 10 nM each time.

As for `CCOc1cc2c(cc1OC)C(c1ccc(C(=O)N3CCC(n4c(=O)c5sc(-c6ccc(F)cc6OC)cc5n(Cc5cc(F)c(OC)c(F)c5)c4=O)CC3)cc1)=N[C@@H]1CCSC[C@H]21` [Example 14, 1-(3,5-difluoro-4-methoxybenzyl)-3-[1-({4-[(4aR,10bR)-9-ethoxy-8-methoxy-3,4,4a,10b-tetrahydro-1H-thiopyrano[4,3-c]isoquinolin-6-yl]phenyl}carbonyl)piperidin-4-yl]-6-(4-fluoro-2-methoxyphenyl)thieno[3,2-d]pyrimidine-2,4(1H,3H)-dione], the results for the IC50 in assay [1] and in assay [2] were greater than 10 nM and 1 to 10 nM, respectively.

For `CCOc1cc2c(cc1OC)C(c1ccc(C(=O)N3CCC(n4c(=O)c5sc(-c6ccc(F)cc6OC)cc5n(Cc5ccc(OC)c(F)c5F)c4=O)CC3)cc1)=N[C@@H]1CCSC[C@H]21` [Example 15, 1-(2,3-difluoro-4-methoxybenzyl)-3-[1-({4-[(4aR,10bR)-9-ethoxy-8-methoxy-3,4,4a,10b-tetrahydro-1H-thiopyrano[4,3-c]isoquinolin-6-yl]phenyl}carbonyl)piperidin-4-yl]-6-(4-fluoro-2-methoxyphenyl)thieno[3,2-d]pyrimidine-2,4(1H,3H)-dione], the results for the IC50 in assay [1] and in assay [2] were 1 to 10 nM and greater than 10 nM, respectively.

As to `CCOc1cc2c(cc1OC)C(c1ccc(C(=O)N3CCC(n4c(=O)c5sc(-c6ccc(F)cc6OC)cc5n(Cc5ccc(C)c(F)c5)c4=O)CC3)cc1)=N[C@@H]1CCSC[C@H]21` [Example 16, 3-[1-({4-[(4aR,10bR)-9-ethoxy-8-methoxy-3,4,4a,10b-tetrahydro-1H-thiopyrano[4,3-c]isoquinolin-6-yl]phenyl}carbonyl)piperidin-4-yl]-6-(4-fluoro-2-methoxyphenyl)-1-(3-fluoro-4-methylbenzyl)thieno[3,2-d]pyrimidine-2,4(1H,3H)-dione], the IC50 in assay [1] and in assay [2] was 1 to 10 nM in each case.

Take `CCOc1cc2c(cc1OC)C(c1ccc(C(=O)N3CCC(n4c(=O)c5sc(-c6ccc(F)cc6OC)cc5n(Cc5ccccc5)c4=O)CC3)cc1)=N[C@@H]1CCSC[C@H]21` [Example 17, 1-benzyl-3-[1-({4-[(4aR,10bR)-9-ethoxy-8-methoxy-3,4,4a,10b-tetrahydro-1H-thiopyrano[4,3-c]isoquinolin-6-yl]phenyl}carbonyl)piperidin-4-yl]-6-(4-fluoro-2-methoxyphenyl)thieno[3,2-d]pyrimidine-2,4(1H,3H)-dione]: the IC50 in assay [1] was 1 to 10 nM; in assay [2] it was greater than 10 nM.
